Experimental data as given in patent US6949533B2, “6,7-Oxygenated steroids and uses related thereto” (Inflazyme Pharmaceuticals Ltd., priority 1996, dated 2005).

Key:
[1] = tested on: passively sensitized rat mast cells (RBL-2H3); assay: antigen-induced release of hexosaminidase from RBL-2H3 cells; format: cell-based; settings: Rattus norvegicus, RBL-2H3, 25 μM compound; antigen-induced hexosaminidase release; read-out: Percentage Inhibition (mean) RBL-2H3 Cells
Protocol: The anti-allergic effects of various polyhydroxylated steroids of the present invention were evaluated by measuring their effect on antigen-induced secretion of hexosaminidase from a passively sensitized rat mast cell line (RBL-2H3) and a murine mast cell line (MC/9). The ability of agents to inhibit the release of mast cell granule contents, e.g., histamine and hexosaminidase, is indicative of anti-allergy and/or anti-asthma activity.
Hexosaminidase is released from the mast cell granule along with histamine and other mediators during antigen challenge. RBL-2H3 and MC/9 cells were grown in culture and passively sensitized to dinitrophenol (DNP) using anti-human-DNP (IgE). Cells were incubated with each compound (25 μM) for 1 hour at 37° C. and then stimulated with 0.1 mg/ml DNP-HSA (antigen) for 15 min. Aliquots of the supernatant were removed and used to measure the amount of hexosaminidase released during challenge with the antigen. The amount of hexosaminidase present in the supernatant was determined calorimetrically by monitoring the enzymatic metabolism of p-nitrophenyl-N-acetyl-β-D-glucosaminide (p-NAG) over a period of 1 hour at 410 nm. The effect of each compound was determined as a percentage of the antigen-induced response (minus background release) obtained in the presence of DMSO alone, as set forth in Tables 2 and 3. These values were used to determine the degrees of inhibition of antigen-induced hexosaminidase release from the cells.

[2] = tested on: sensitized guinea pigs; assay: allergen-induced changes in lung resistance and compliance in vivo; set-up: species or system guinea pig
Protocol: Female Cam Hartley guinea pigs (350-400 g) are sensitized to ovalbumin by exposure of the guinea pigs to a nebulized solution of 1% ovalbumin in saline for 15 minutes. After 10-12 days, the animals are found to be acutely sensitized to the allergen (ovalbumin). Animals are treated by oral gavage, under light halothane anesthesia, with 300 μl polyethyleneglycol-200 (PEG) or 5 mg/Kg of test compound in 300 μl of PEG. Animals are treated once daily for 4 days with the final dose administered 2 hours prior to allergen challenge. Alternatively, compounds were delivered by inhalation, using a Hudson nebulizer driven by 6 psi oxygen, providing a single dose of 50 μg/Kg 20 min prior to challenge.
An animal is anaesthetized using ketamine ([…]; i.p.) and xylazine (10 mg/Kg; i.p.) and 1% halothane during the surgical procedure. A tracheostomy is performed and a water-filled esophageal cannula is inserted prior to positioning the animal in a body plethysmograph. The tracheal cannula is attached to a fixed tracheal cannula in the plethysmograph. Cardiac function is monitored using electrocardiography. The animal is paralyzed using pancuronium bromide (0.8 mg/Kg; i.m.) and ventilated with 3 ml tidal breaths using a Harvard small animal ventilator, at a frequency of 60 breaths per minute. Pulmonary resistance and dynamic lung compliance data are obtained from volume, flow and transpulmonary pressure signals using multipoint analysis.
Pulmonary function is continually monitored throughout the experiment and measurements of lung resistance and lung compliance are made at various time-points (e.g., 0, 1, 2, 3, 4, 5, 10, 20 and 30 min) following antigen challenge. Data is collected on a computer-linked physiological measurement system using DIREC Physiological recording software and analyzed using ANADAT software designed for lung mechanics measurements. This software was obtained from RHT-InfoDat Inc., Montreal, Quebec, Canada.
Once baseline resistance and compliance measurements are obtained, the animal is challenged with 6 breaths of saline. After 10 minutes, during which time no alterations in lung function should occur, the animal is challenged with 6 breaths of 2 or 3% ovalbumin in saline (as the antigen stimulus). Saline and antigen are delivered in each breath using a Hudson nebulizer.

[3] = tested on: NF-κB; assay: NF-κB gel shift binding assay in TPA-stimulated RBL-2H3 cells; format: cell-based; settings: Rattus norvegicus, compound 1 μM, 2 hours preincubation, read-out: Percent Inhibition of Response to TPA (0.1 μM)
[4] = 5 mg/kg/day for 4 days p.o., 1 min after challenge
[5] = 5 mg/kg/day for 4 days p.o., 3 min after challenge
[6] = 5 mg/kg/day for 4 days p.o., 4 min after challenge
[7] = 5 mg/kg/day for 4 days p.o., 5 min after challenge
[8] = 5 mg/kg/day for 4 days p.o., 10 min after challenge
[9] = 5 mg/kg/day for 4 days p.o., 20 min after challenge
[10] = 5 mg/kg/day for 4 days p.o., 30 min after challenge
[11] = 5 mg/kg/day for 4 days p.o., Baseline
[12] = 5 mg/kg/day for 4 days p.o., OA/10 s

C/C=C1/CCC2C3C(CC[C@]12C)[C@@]1(C)CC[C@@H](O)CC1[C@@H](O)[C@@H]3O (stereo partly drawn) [Compound 330, 3α,6α,7β-trihydroxy-17(20)-pregnene]
inhibition at 25 µM [1]: 59% | Lung Resistance ([2]; 50 μg/kg inhalation, 3 min after challenge): 0.420 ± 0.051 cm H2O/ml/sec | Lung Compliance ([2]; 50 μg/kg inhalation, 4 min after challenge): 0.145 ± 0.046 ml/cm H2O | Lung Compliance [2, 4]: 0.182 ± 0.093 ml/cm H2O | Lung Resistance [2, 4]: 0.560 ± 0.101 cm H2O/ml/sec | Lung Resistance ([2]; 5 mg/kg/day for 4 days p.o., 2 min after challenge): 0.845 ± 0.201 cm H2O/ml/sec | Lung Compliance [2, 5]: 0.133 ± 0.095 ml/cm H2O | Lung Resistance [2, 5]: 0.887 ± 0.160 cm H2O/ml/sec | Lung Compliance [2, 6]: 0.124 ± 0.088 ml/cm H2O | Lung Resistance [2, 6]: 0.778 ± 0.119 cm H2O/ml/sec | Lung Compliance [2, 7]: 0.125 ± 0.087 ml/cm H2O | Lung Resistance [2, 7]: 0.791 ± 0.139 cm H2O/ml/sec | Lung Compliance [2, 8]: 0.150 ± 0.082 ml/cm H2O | Lung Resistance [2, 8]: 0.661 ± 0.141 cm H2O/ml/sec | Lung Compliance [2, 9]: 0.184 ± 0.061 ml/cm H2O | Lung Resistance [2, 9]: 0.366 ± 0.046 cm H2O/ml/sec | Lung Compliance [2, 10]: 0.196 ± 0.061 ml/cm H2O | Lung Resistance [2, 10]: 0.340 ± 0.037 cm H2O/ml/sec | Lung Compliance [2, 11]: 0.318 ± 0.042 ml/cm H2O | Lung Resistance [2, 11]: 0.275 ± 0.036 cm H2O/ml/sec | Lung Compliance [2, 12]: 0.435 ± 0.041 ml/cm H2O | Lung Resistance [2, 12]: 0.260 ± 0.036 cm H2O/ml/sec | inhibition at 1 µM [3]: 66%
